Values joined by “and” are separate entries in the source; they are usually repeats but may differ in a detail not shown here. Identical values can stand only once.
Tests used:
Format in all cases: cell-based
[1] = system: A549 cells overexpressing BCL-2 WT; experiment: Cell viability assay, A549 stably overexpressing BCL-2 WT; settings: for luminescence reading (raw, replicate wells) / luminescence reading, everage / inhibition rate: BCL2-WT A549; for luminescence reading, everage: mean of 6 wells
Experimental: (§1) Cell viability was measured using CellTiter-Glo® 2.0 Reagent (Promega, G9242). […] After different inhibitors were added into serum-free medium and cultured for 4 h (RS4:11 for 6 h), FBS were supplemented to 10% and then incubated totally for 24 h or 48 h. Finally, the IC50 values were calculated based on measurements using a microplate reader (Thermo, Varioskan LUX). Statistical analysis was performed using software GraphPad Prism 7.0.
Lentivirus packaging vectors pMDLg/pRRE, pRSV-Rev, and pVSV-G were obtained from Prof. Han Jiahuai’s lab (Xiamen University). Lentiviruses were produced using 3rd-generation lentivirus packaging plasmids transiently transfected into HEK293T cells with the constructs of interest using 0.25 M CaCl2. Media was changed after 16 h, and supernatants containing infectious virus particles were harvested 24 h later. A second viral harvest was made following a further 24 h incubation with fresh media. Virus containing supernatant was filtered through a […], and stored at 4 °C or −80 °C until being used. Typically, A549 cells were seeded into 10 cm cell culture dishes at 4 ~ 8 × 10^5 cells/cm^2. An equivalent volume of virus containing culture medium was added along with polybrene (Sigma) to a final concentration of 10 µg/mL. Cells were incubated at 37 °C for 20 h, before they were washed and resuspended in fresh culture media. The expression level of BCL-2 was measured by qPCR and western blot methods.

[2] = system: Jurkat cells; experiment: Cytochrome C release assay (mitochondrial cytochrome C, Western blot); settings: 2.5 μM, 12 h
Experimental: Jurkat cells at 2 ×10^6 cells/mL were incubated in the presence of DMSO or 50 μM BIP-V5 inhibitor[54] (Yuanye Biotechnology Co., Ltd, 579492-81-2) for 24 h. Two groups of above treated cells were each divided into four groups and incubated in the presence of DMSO, venetoclax at 2.5 μM, cp4-TAT at 20 μM, or cp5-TAT at 15 μM in serum-free RPMI medium for 4 h. Then the medium was supplemented with FBS to 10% and incubated for another 8 h. After being treated by venetoclax or CPs for totally 12 h, cell were processed with the Mitochondrial Separation Kit (Beyotime, C3601) to extract mitochondria. Cytochrome C in mitochondria and BAX proteins in the whole cells were detected by Western blot.
Cell lysates containing equal amounts of total proteins were denatured, subjected to electrophoresis on SDS-PAGE gels, and transferred onto nitrocellulose membranes. The blots were blocked with 5% skim milk and then incubated at 4 °C overnight with the corresponding primary antibodies against BCL-2 (dilution 1:1000, Abcam, ab194583), BCL-XL (dilution 1:1000, Abcam, ab32370), anti-Flag (dilution 1:1000, Sigma, F1804), cytochrome C (dilution 1:1000, Beyotime, AC909), BAX (dilution 1:1000, Beyotime, AB026), α-Tubulin (dilution 1:3000, Abcam, ab7291), or β-Actin (dilution 1:3000, Abcam, ab8227). […]

[3] = system: PANC-1 cells; experiment: Cell viability assay (CellTiter-Glo), PANC-1; settings: PNAC-1; for inhibition rate: fraction; for inhibition rate / raw viability reading: replicates
Experimental: The cell lines Jurkat (TIB-152), El4 (TIB-39), Daudi (ccl-213), RS4:11 (crl-1873), A549 (ccl-185), HepG2 (hb-8065) and PANC-1 (crl-1469) were purchased from ATCC (American Type Culture Collection), and MGC-803 (C6582) was purchased from Beyotime (https://www.beyotime.com/product/C6582.htm). […] Daudi and RS4:11 cells were cultured in RPMI-1640 medium (HyClone, SH30809.01) and 10% FBS (Gibco, 10099-141), whereas HepG2, MGC-803 and PANC-1 cells were cultured in MDEM (HyClone, SH30243.01). Cells were maintained at 37 °C under a humidified, 5% (v/v) CO2-containing atmosphere.
as §1
Supplementary Figure 10 Functional mechanism of CPs. a. IC50 values of venetoclax against A549, MGC-803 and PANC-1 cells, measured after 48 h treatment by a CellTiter-Glo assay and calculated using Prism 7.0 by a nonlinear-fit method. Data are presented as mean ± s.d.; n= 6 biological replicates. b. […]
Glo assay. Each data point represents the mean ± s.d. for 6 biological replicates.
Supplementary Figure 11 IC50 values of different inhibitors against different cell lines. a-d. Viability of A549 (a), HepG2 (b), MGC-803 (c) and PANC-1 (d) cells treated with various concentrations of ABT-199 (venetoclax), and measured after 48 h by a CellTiter-Glo assay. e, f. Viability of Jurkat cells (e) and Daudi cells (f) treated with […]
after 48 h by a CellTiter-Glo assay. Each data point represents the mean ± s.d. for 6 biological replicates.
(1 picture or pasted object on this page, not shown here)

Question: CC1(C)CCC(CN2CCN(c3ccc(C(=O)NS(=O)(=O)c4ccc(NCC5CCOCC5)c([N+](=O)[O-])c4)c(Oc4cnc5[nH]ccc5c4)c3)CC2)=C(c2ccc(Cl)cc2)C1 [venetoclax] was tested. Which “luminescence reading (raw, replicate wells)” value ([1]; ABT-199 0.390625 uM) did it give?
Answer: 644100 and 629100 and 637900 and 643500 and 647000 and 655800

Question: And the “luminescence reading, everage” value ([1]; ABT-199 0.390625 uM)?
Answer: 642900

Question: What about the inhibition rate ([1]; ABT-199 0.390625 uM, replicate wells) of the same compound?
Answer: -3.29% and -4.73% and -5.65% and -6% and -8% and -5.55%

Question: What about the “luminescence reading (raw, replicate wells)” value ([1]; ABT-199 0.78125 uM) of the same compound?
Answer: 567400 and 598600 and 586100 and 654900 and 608300 and 579900

Question: What about the “luminescence reading, everage” value ([1]; ABT-199 0.78125 uM) of the same compound?
Answer: 599200

Question: What about the inhibition rate ([1]; ABT-199 0.78125 uM, replicate wells) of the same compound?
Answer: 1.72% and 3.77% and -7.52% and 0.129% and 5% and 1.62%

Question: What about the “luminescence reading (raw, replicate wells)” value ([1]; ABT-199 1.5625 uM) of the same compound?
Answer: 298800 and 328200 and 290000 and 313400 and 302200 and 296200

Question: And the “luminescence reading, everage” value ([1]; ABT-199 1.5625 uM)?
Answer: 304800

Question: What about the inhibition rate ([1]; ABT-199 1.5625 uM, replicate wells) of the same compound?
Answer: 52% and 49% and 50% and 51%

Question: What about the “luminescence reading (raw, replicate wells)” value ([1]; ABT-199 3.125 uM) of the same compound?
Answer: 264200 and 271400 and 265500 and 281900 and 276200 and 275000

Question: And the “luminescence reading, everage” value ([1]; ABT-199 3.125 uM)?
Answer: 272367

Question: What about the inhibition rate ([1]; ABT-199 3.125 uM, replicate wells) of the same compound?
Answer: 56% and 54%

Question: And the “luminescence reading (raw, replicate wells)” value ([1]; ABT-199 6.25 uM)?
Answer: 239200 and 242900 and 250800 and 260000 and 262000 and 251900

Question: What about the “luminescence reading, everage” value ([1]; ABT-199 6.25 uM) of the same compound?
Answer: 251133

Question: What about the inhibition rate ([1]; ABT-199 6.25 uM, replicate wells) of the same compound?
Answer: 59% and 57%

Question: And the “luminescence reading (raw, replicate wells)” value ([1]; ABT-199 12.5 uM)?
Answer: 192300 and 201400 and 189800 and 189400 and 190500 and 194300

Question: What about the “luminescence reading, everage” value ([1]; ABT-199 12.5 uM) of the same compound?
Answer: 192950

Question: And the inhibition rate ([1]; ABT-199 12.5 uM, replicate wells)?
Answer: 69% and 68%

Question: What about the “luminescence reading (raw, replicate wells)” value ([1]; ABT-199 25 uM) of the same compound?
Answer: 124100 and 129200 and 123800 and 128900 and 121100 and 127700

Question: And the “luminescence reading, everage” value ([1]; ABT-199 25 uM)?
Answer: 125800

Question: What about the inhibition rate ([1]; ABT-199 25 uM, replicate wells) of the same compound?
Answer: 80%

Question: What about the “luminescence reading (raw, replicate wells)” value ([1]; ABT-199 50 uM) of the same compound?
Answer: 61440 and 62870 and 63340 and 62270 and 63280 and 66020

Question: What about the “luminescence reading, everage” value ([1]; ABT-199 50 uM) of the same compound?
Answer: 63203

Question: And the inhibition rate ([1]; ABT-199 50 uM, replicate wells)?
Answer: 89%

Question: What about the “luminescence reading (raw, replicate wells)” value ([1]; ABT-199 100 uM) of the same compound?
Answer: 19300 and 21810 and 21770 and 21930 and 21040 and 20180

Question: And the “luminescence reading, everage” value ([1]; ABT-199 100 uM)?
Answer: 21005

Question: What about the inhibition rate ([1]; ABT-199 100 uM, replicate wells) of the same compound?
Answer: 97%

Question: What about the “luminescence reading (raw, replicate wells)” value ([1]; ABT-199 200 uM) of the same compound?
Answer: 4077 and 3911 and 4092 and 4449 and 4173 and 4465

Question: And the “luminescence reading, everage” value ([1]; ABT-199 200 uM)?
Answer: 4195

Question: And the inhibition at 1.5625 µM ([1]; Homo sapiens, A549, BCL2-WT A549, ABT-199 1.5625 uM, replicate wells, read-out: inhibition rate)?
Answer: 46%

Question: And the inhibition at 3.125 µM ([1]; Homo sapiens, A549, BCL2-WT A549, ABT-199 3.125 uM, replicate wells, read-out: inhibition rate)?
Answer: 55%

Question: And the inhibition at 6.25 µM ([1]; Homo sapiens, A549, BCL2-WT A549, ABT-199 6.25 uM, replicate wells, read-out: inhibition rate)?
Answer: 60%

Question: What about the inhibition at 12.5 µM ([1]; Homo sapiens, A549, BCL2-WT A549, ABT-199 12.5 uM, replicate wells, read-out: inhibition rate) of the same compound?
Answer: 67%

Question: What about the inhibition at 25 µM ([1]; Homo sapiens, A549, BCL2-WT A549, ABT-199 25 uM, replicate wells, read-out: inhibition rate) of the same compound?
Answer: 79%

Question: And the inhibition at 50 µM ([1]; Homo sapiens, A549, BCL2-WT A549, ABT-199 50 uM, replicate wells, read-out: inhibition rate)?
Answer: 90%

Question: And the inhibition at 100 µM ([1]; Homo sapiens, A549, BCL2-WT A549, ABT-199 100 uM, replicate wells, read-out: inhibition rate)?
Answer: 96%

Question: And the inhibition at 200 µM ([1]; Homo sapiens, A549, BCL2-WT A549, ABT-199 200 uM, replicate wells, read-out: inhibition rate)?
Answer: 99%

Question: What about the IC50 ([1]; Homo sapiens, A549, 48 h, CellTiter-Glo, n = 6) of the same compound?
Answer: 2.5 ± 0.2 µM

Question: And the “Cytochrome C level in mitochondria” value [2]?
Answer: decreased clearly

Question: What about the “average (raw viability reading)” value ([3]; ABT199 0.625 uM) of the same compound?
Answer: 745567

Question: And the inhibition rate ([3]; ABT199 0.625 uM)?
Answer: -0.00675 and 0.06232 and 0.04686 and 0.01357 and 0.002949

Question: What about the raw viability reading ([3]; ABT199 0.625 uM) of the same compound?
Answer: 768100 and 715400 and 727200 and 752600 and 760700 and 749400

Question: What about the “average (raw viability reading)” value ([3]; ABT199 1.25 uM) of the same compound?
Answer: 742283

Question: And the inhibition rate ([3]; ABT199 1.25 uM)?
Answer: 0.02549 and 0.03519 and 0.03296 and 0.02484 and -0.003211 and 0.04725

Question: And the raw viability reading ([3]; ABT199 1.25 uM)?
Answer: 743500 and 736100 and 737800 and 744000 and 765400 and 726900

Question: And the “average (raw viability reading)” value ([3]; ABT199 2.5 uM)?
Answer: 777083

Question: What about the inhibition rate ([3]; ABT199 2.5 uM) of the same compound?
Answer: -0.04175 and 0.01278 and 0.00793 and -0.01999 and -0.04882 and -0.0213

Question: And the raw viability reading ([3]; ABT199 2.5 uM)?
Answer: 794800 and 753200 and 756900 and 778200 and 800200 and 779200

Question: What about the “average (raw viability reading)” value ([3]; ABT199 5 uM) of the same compound?
Answer: 562150

Question: And the inhibition rate ([3]; ABT199 5 uM)?
Answer: 0.3097 and 0.2596 and 0.2661 and 0.2453 and 0.2389

Question: And the raw viability reading ([3]; ABT199 5 uM)?
Answer: 526700 and 564900 and 559900 and 575800 and 580700

Question: And the “average (raw viability reading)” value ([3]; ABT199 10 uM)?
Answer: 446683

Question: What about the inhibition rate ([3]; ABT199 10 uM) of the same compound?
Answer: 0.4023 and 0.4323 and 0.4298 and 0.4149 and 0.4042 and 0.4036

Question: What about the raw viability reading ([3]; ABT199 10 uM) of the same compound?
Answer: 456000 and 433100 and 435000 and 446400 and 454600 and 455000

Question: And the “average (raw viability reading)” value ([3]; ABT199 20 uM)?
Answer: 384133

Question: And the inhibition rate ([3]; ABT199 20 uM)?
Answer: 0.5271 and 0.5025 and 0.4945 and 0.4865 and 0.4715 and 0.4971

Question: What about the raw viability reading ([3]; ABT199 20 uM) of the same compound?
Answer: 360800 and 379600 and 385700 and 391800 and 403200 and 383700
